Where a name gives a salt, the structure may show the parent alone. Read-outs that look alike come from different tables or passages of the source.
What was measured:
[1] = system: cultured human mast cells; assay: Degranulation inhibition test using cultured human mast cells (IgE cross-linking, β-Hexosaminidase release); format: cell-based; settings: Mast cell, cultured human mast cells, read-out: human degranulation ave. IC50
Outline: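 CD34+ cord-blood cells cultured ≥8 weeks with SCF/IL-6/IL-3; FcεRI primed 5 days with rhIL-4 (1 ng/mL) and hIgE (0.5 μg/mL). Compound (0.1% DMSO) preincubated 10 min at 37 °C, then anti-IgE (final 10 μg/mL) 30 min; released β-hexosaminidase read at 405 nm versus total lysate, IC50 (M).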

[2] = target: GST-Syk Full Protein (human) (Homo sapiens, UniProt P43405); assay: Syk kinase inhibition test (HTRF method); format: biochemical; settings: read-out: sykHTRF ave IC50
Outline: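 Human GST-Syk full-length (6.4 nM) phosphorylated biotin-EDPDYEWPSA-NH2 (250 nM) with 100 μM ATP in HEPES pH 7.0/MgCl2 buffer, 2% DMSO, 30 min at room temperature. EDTA stop, then HTRF detection (streptavidin-XL665, Eu anti-phosphotyrosine) after 1 h; 665/620 ratio read.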

Row | SMILES | IC50 ([1]; anti-hIgE stimulation, β-Hexosaminidase index, average) [nM] | IC50 ([2]; HTRF, 100 μM ATP, 30 min room temperature, average) [nM] | IC50 ([1]; Tables 1-x, compounds A) [nM] | IC50 ([2]; Tables 1-x, compounds A) [nM]
1 | CNC(=O)N1CCN(c2ncc(-c3cccc(Nc4cc(C)ccn4)n3)s2)CC1 [Compound A-427, N-methyl-4-{5-[6-(4-methylpyridin-2-ylamino)pyridin-2-yl]thiazol-2-yl}piperazine-1-carboxamide] | < 100 | < 100 | – | –
2 | Cc1ccnc(Nc2cccc(-c3sc(N4CCC(C(N)=O)CC4)nc3C)n2)c1 [Compound A-429, 1-{4-methyl-5-[6-(4-methylpyridin-2-ylamino)pyridin-2-yl]thiazol-2-yl}piperidine-4-carboxamide] | – | – | > 1000 | < 100
3 | COC1CCN(c2ncc(-c3cccc(Nc4cc(C)ccn4)n3)s2)CC1 [Compound A-431, N-{6-[2-(4-methoxypiperidin-1-yl)thiazol-5-yl]pyridin-2-yl}-N-(4-methylpyridin-2-yl)amine] | – | – | 100 to 1000 | < 100
4 | Cc1ccnc(Nc2cccc(-c3cnc(N4CCN(C)CC4)s3)n2)c1 [Compound A-432, N-{6-[2-(4-methylpiperazin-1-yl)thiazol-5-yl]pyridin-2-yl}-N-(4-methylpyridin-2-yl)amine] | – | – | 100 to 1000 | < 100
5 | Cc1ccnc(Nc2cccc(-c3cnc(N4CCC(O)CC4)s3)n2)c1 [Compound A-433, 1-{5-[6-(4-methylpyridin-2-ylamino)pyridin-2-yl]thiazol-2-yl}piperidin-4-ol] | – | – | < 100 | < 100
6 | Cc1ccnc(Nc2cccc(-c3cnc(N4CCC(C(=O)N(C)C)CC4)s3)n2)c1 [Compound A-434] | – | – | > 1000 | 100 to 1000
7 | COCCNC(=O)C1CCN(c2ncc(-c3cccc(Nc4cc(C)ccn4)n3)s2)CC1 [Compound A-435] | – | – | > 1000 | 100 to 1000
8 | CNC(=O)C1CCN(c2ncc(-c3cccc(Nc4cc(OC)ccn4)n3)s2)CC1 [Compound A-436, N-methyl-1-{5-[6-(4-methoxypyridin-2-ylamino)pyridin-2-yl]thiazol-2-yl}piperidine-4-carboxamide] | – | – | 100 to 1000 | < 100
9 | Cc1ccnc(Nc2cccc(-c3sc(N4CCN(C=O)CC4)nc3C)n2)c1 [Compound A-437, 4-{4-methyl-5-[6-(4-methylpyridin-2-ylamino)pyridin-2-yl]thiazol-2-yl}piperazine-1-carbaldehyde] | – | – | 100 to 1000 | < 100
10 | COC(=O)N1CCN(c2ncc(-c3cccc(Nc4cc(C)ccn4)n3)s2)CC1 [Compound A-438, methyl 4-{5-[6-(4-methylpyridin-2-ylamino)pyridin-2-yl]thiazol-2-yl}piperazine-1-carboxylic acid methyl ester] | – | – | 100 to 1000 | < 100
11 | Cc1ccnc(Nc2cccc(-c3cnc(N4CCN(C(=O)CO)CC4)s3)n2)c1 [Compound A-439, 2-hydroxy-1-(4-{5-[6-(4-methylpyridin-2-ylamino)pyridin-2-yl]thiazol-2-yl}piperazin-1-yl)ethanone] | – | – | < 100 | < 100
12 | CCC(=O)N1CCN(c2ncc(-c3cccc(Nc4cc(C)ccn4)n3)s2)CC1 [Compound A-440, 1-(4-{5-[6-(4-methylpyridin-2-ylamino)pyridin-2-yl]thiazol-2-yl}piperazin-1-yl)propan-1-one] | – | – | 100 to 1000 | < 100
13 | Cc1ccnc(Nc2cccc(-c3cnc(N4CCN(C(=O)N(C)C)CC4)s3)n2)c1 [Compound A-441, N,N-dimethyl-4-{5-[6-(4-methylpyridin-2-ylamino)pyridin-2-yl]thiazol-2-yl}piperazine-1-carboxamide] | – | – | 100 to 1000 | < 100
14 | COc1ccnc(Nc2cccc(-c3cnc(N4CCN(C(C)=O)CC4)s3)n2)c1 [Compound A-442, 1-(4-{5-[6-(4-methoxypyridin-2-ylamino)pyridin-2-yl]thiazol-2-yl}piperazin-1-yl)ethanone] | – | – | 100 to 1000 | < 100
15 | CC(=O)N1CCN(c2ncc(-c3cccc(Nc4cc(Cl)ccn4)n3)s2)CC1 [Compound A-443, 1-(4-{5-[6-(4-chloropyridin-2-ylamino)pyridin-2-yl]thiazol-2-yl}piperazin-1-yl)ethanone] | – | – | 100 to 1000 | < 100
16 | Cc1ccnc(Nc2cccc(-c3cnc(N(C)C4CCC(C(=O)O)CC4)s3)n2)c1 (stereo not shown) [Compound A-444, 4-(methyl-{5-[6-(4-methylpyridin-2-ylamino)pyridin-2-yl]thiazol-2-yl}amino)cyclohexanecarboxylic acid] | – | – | 100 to 1000 | < 100

Row | SMILES | IC50 ([1]; anti-hIgE stimulation, β-Hexosaminidase index, average) [nM] | IC50 ([2]; HTRF, 100 μM ATP, 30 min room temperature, average) [nM] | IC50 ([1]; Tables 1-x, compounds A) [nM] | IC50 ([2]; Tables 1-x, compounds A) [nM]
17 | Cc1ccnc(Nc2cccc(-c3cnc(N(C)C4CCC(C(N)=O)CC4)s3)n2)c1 (stereo not shown) [Compound A-446, 4-(N-methyl-N-{5-[6-(4-methylpyridin-2-ylamino)pyridin-2-yl]thiazol-2-yl}amino)cyclohexanecarboxamide] | – | – | 100 to 1000 | < 100
18 | Cc1ccnc(Nc2cccc(-c3cnc(N4CCC(c5noc(=O)[nH]5)CC4)s3)n2)c1 [Compound A-450, 3-(1-{5-[6-(4-methylpyridin-2-ylamino)pyridin-2-yl]thiazol-2-yl}piperidin-4-yl)-4H-[1,2,4]oxadiazole-5-one] | – | – | > 1000 | < 100
19 | Cc1ccnc(Nc2cccc(-c3cnc(N(C)C4CCNCC4)s3)n2)c1 [Compound A-452, N-methyl-N-{5-[6-(4-methylpyridin-2-ylamino)pyridin-2-yl]thiazol-2-yl}-N-piperidin-4-ylamine] | – | – | > 1000 | < 100
20 | COC(CN(C)c1ncc(-c2cccc(Nc3cc(C)ccn3)n2)s1)OC [Compound A-457, N-(2,2-dimethoxyethyl)-N-methyl-N-{5-[6-(4-methylpyridin-2-ylamino)pyridin-2-yl]thiazol-2-yl}amine] | – | – | 100 to 1000 | < 100
21 | CC(=O)N1CCC(N(C)c2ncc(-c3cccc(Nc4cc(C)ccn4)n3)s2)CC1 [Compound A-458, 1-[4-(N-methyl-N-{5-[6-(4-methylpyridin-2-ylamino)pyridin-2-yl]thiazol-2-yl}amino)piperidin-1-yl]ethanone] | – | – | 100 to 1000 | < 100
22 | Cc1ccnc(Nc2cccc(-c3cnc(N(C)C4CCN(C(=O)CO)CC4)s3)n2)c1 [Compound A-459, 2-hydroxy-1-[4-(N-methyl-N-{5-[6-(4-methylpyridin-2-ylamino)pyridin-2-yl]thiazol-2-yl}amino)piperidin-1-yl]ethanone] | – | – | 100 to 1000 | < 100
23 | CNC(=O)N1CCC(N(C)c2ncc(-c3cccc(Nc4cc(C)ccn4)n3)s2)CC1 [Compound A-460, N-methyl-4-(N′-methyl-N′-{5-[6-(4-methylpyridin-2-ylamino)pyridin-2-yl]thiazol-2-yl}amino)piperidine-1-carboxamide] | – | – | 100 to 1000 | < 100
24 | CC(=O)NCC(=O)N1CCC(N(C)c2ncc(-c3cccc(Nc4cc(C)ccn4)n3)s2)CC1 [Compound A-461, N-{2-[4-(N′-methyl-N′-{5-[6-(4-methylpyridin-2-ylamino)pyridin-2-yl]thiazol-2-yl}amino)piperidin-1-yl]-2-oxoethyl}acetamide] | – | – | 100 to 1000 | < 100
25 | Cc1ccnc(Nc2cccc(-c3cnc(N4CCN(CC(=O)O)C(=O)C4)s3)n2)c1 [Compound A-464, (4-{5-[6-(4-methylpyridin-2-ylamino)pyridin-2-yl]thiazol-2-yl}-2-oxopiperazin-1-yl)acetic acid dihydrochloride] | – | – | > 1000 | < 100
26 | Cc1ccnc(Nc2cccc(-c3cnc(N4CCN(CC(N)=O)C(=O)C4)s3)n2)c1 [Compound A-465, 2-(4-{5-[6-(4-methylpyridin-2-ylamino)pyridin-2-yl]thiazol-2-yl}-2-oxopiperazin-1-yl)acetamide] | – | – | 100 to 1000 | < 100
27 | CNC(=O)CN1CCN(c2ncc(-c3cccc(Nc4cc(C)ccn4)n3)s2)CC1=O [Compound A-466, N-methyl-2-(4-{5-[6-(4-methylpyridin-2-ylamino)pyridin-2-yl]thiazol-2-yl}-2-oxopiperazin-1-yl)acetamide] | – | – | > 1000 | < 100
28 | CNC(=O)CN(C)C(=O)C1CCN(c2ncc(-c3cccc(Nc4cc(C)ccn4)n3)s2)CC1 [Compound A-469, N-methyl-N-methylcarbamoylmethyl-1-{5-[6-(4-methylpyridin-2-ylamino)pyridin-2-yl]thiazol-2-yl}piperidine-4-carboxamide] | – | – | 100 to 1000 | < 100
29 | Cc1ccnc(Nc2cccc(-c3cnc(N(C)C4CCOCC4)s3)n2)c1 [Compound A-470, N-methyl-N-{5-[6-(4-methylpyridin-2-ylamino)pyridin-2-yl]thiazol-2-yl}-N-tetrahydropyran-4-ylamine] | – | – | 100 to 1000 | < 100
30 | Cc1ccnc(Nc2cccc(-c3cnc(N(C)Cc4ccc(O)cc4)s3)n2)c1 [Compound A-471, 4-[(N-methyl-N-{5-[6-(4-methylpyridin-2-ylamino)pyridin-2-yl]thiazol-2-yl}amino)methyl]phenol] | – | – | 100 to 1000 | < 100
31 | CC(=O)N[C@@H]1CCN(c2ncc(-c3cccc(Nc4cc(C)ccn4)n3)s2)C1 [Compound A-472, N—((R)-1-{5-[6-(4-methylpyridin-2-ylamino)pyridin-2-yl]thiazol-2-yl}pyrrolidin-3-yl)acetamide] | – | – | 100 to 1000 | < 100
32 | Cc1ccnc(Nc2cccc(-c3cnc(N4CC[C@@H](N)C4)s3)n2)c1 [Compound A-473, (R)-1-{5-[6-(4-methylpyridin-2-ylamino)pyridin-2-yl]thiazol-2-yl}pyrrolidin-3-ylamine] | – | – | > 1000 | < 100
